Values belong to the compound of their own block, whether it stands above or below them.
Target: T1, human MCR1 receptor (Homo sapiens, UniProt Q01726)
T1 construct: expressed in transfected cells
Experiment: MCR1 standard functional assay (Protocol A): cAMP AlphaScreen in HEK cells
Format: cell-based
Conditions: for EC50: Protocol A
Method: Stimulation of adenylate cyclase following receptor activation is a widely used measure of functional activity for a number of receptor systems. The functional assay to measure cyclic AMP (cAMP) utilises human embryonic kidney (HEK) cells that stably express the human melanocortin MCR1, MCR3 or MCR4 receptor. Activation of MCR1, MCR3 or MCR4 receptors stimulates adenylate cyclase, generating cAMP, which is measured using AlphaScreen™ (PerkinElmer assay kits.
The AlphaScreen™ cAMP assay kit consists of ‘donor beads’, ‘acceptor beads’, and biotinylated cAMP which links the different beads together. Excitation of this linked complex at […] in the Fusion™-α microplate analyser results in light emission between […].
(i) MCR1. MCR3 and MCR4 Standard Functional Assay Methodology [Assay Protocol A, B AND C Respectively]
Determination of activity against the human MCR1, MCR3 and MCR4 receptor subtypes was carried out for compounds according to the present invention using three immortalised human embryonic kidney (HEK) cell lines that had been biologically engineered to express the human melanocortin MCR1, MCR3 or MCR4 receptor subtypes. These cell lines were engineered using protocols akin to those outlined by Gouarderes et al (Gouarderes, C., (2002) Neuroscience, 115(2); 349-361).
Such-compound-induced activation of these MCR1, MCR3 or MCR4 receptors lead to the stimulation of the cellular enzyme adenylate cyclase, which in turn lead to the cellular generation, and intra-cellular accumulation, of cyclic adenosine monophosphate (cAMP). […] Intracellular levels of cAMP were quantified using the commercially available AlphaScreen™ assay kits from PerkinElmer. A detailed assay protocol and an explanation of the concept underlying this kit is available through the PerkinElmer website (www.perkinelmer.com). The protocol listed below provides a summary this information.
The quantity of intracellular cAMP produced by compound-induced activation of the MCR1, MCR3 and MCR4 receptors in these three cell lines was measured using a Fusion™-α microplate analyser set to stimulate at a wavelength of 680 nm and to measure the energy emitted at wave lengths between […]. Compound-induced increases in MCR1, MCR3 or MCR4 receptor activation were subsequently quantified as a decrease in the quantity of light emitted at wavelengths between […]. Data analysis was subsequently performed using a curve-fitting program and the apparent potency of the test compound (expressed as an EC50 and defined as the effective compound concentration that elicited 50% of the maximum compound-induced response) extrapolated from the fitted curve.
Stimulation buffer (as per AlphaScreen™ protocol): HBSS supplemented with 0.5 mM IBMX, 5 mM HEPES, 0.1% (w/v) BSA and 10 mM MgCl2.
Lysis buffer (as per AlphaScreen™ protocol): 5 mM HEPES solution supplemented with 0.1% (w/v) BSA and 0.3% (v/v) Tween-20.
Detection mix (as per AlphaScreen™ protocol): Lysis buffer supplemented with the biotinylated cAMP (10 nM) and Donor beads (10 μg/ml) as supplied in the AlphaScreenT cAMP assay kit.
For the MCR1, MCR3 and MCR4 standard functional assay methodologies compounds were initially dissolved in DMSO to give a compound concentration of 4 mM and then further diluted for the assay in stimulation buffer to give actual concentrations 2-fold greater than that desired as the final assay concentration.
The three HEK cell lines, as detailed hereinbefore, expressing the human MCR1, MCR3 or MCR4 receptor subtypes were grown in T225 vent cap flasks containing 50 ml of growth medium (DMEM supplemented with 10% (v/v) FCS, 2 mM L-Glutamine, 25 mM HEPES and 1.0 mg/ml Geneticin) and maintained in a cell incubator at a temperature of 37° C. and in an environment containing 5% CO2. Cells were harvested when they reached 80-90% confluency by first removing the existing growth medium and then washing with PBS that had been pre-warmed to a temperature of 37° C. […]

T1 sequence (Q01726 whole entry): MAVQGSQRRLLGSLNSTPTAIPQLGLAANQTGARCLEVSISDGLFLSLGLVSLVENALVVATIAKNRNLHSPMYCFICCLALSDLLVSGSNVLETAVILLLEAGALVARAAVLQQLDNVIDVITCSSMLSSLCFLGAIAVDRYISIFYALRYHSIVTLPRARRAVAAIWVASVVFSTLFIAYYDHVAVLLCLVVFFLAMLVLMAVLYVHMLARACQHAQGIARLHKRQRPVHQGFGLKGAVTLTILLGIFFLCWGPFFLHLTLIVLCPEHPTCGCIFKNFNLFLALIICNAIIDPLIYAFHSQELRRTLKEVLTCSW

Compound: CC(C)N1C[C@@H](C(=O)N2C[C@@H](C)[C@](O)(c3ccccc3)[C@@H](C)C2)[C@H](c2ccc(F)cc2F)C1.Cl [Example 6, (3R,4R,5S)-1-{[(3S,4R)-4-(2,4-Difluorophenyl)-1-isopropylpyrrolidin-3-yl]carbonyl}-3,5-dimethyl-4-phenylpiperidin-4-ol hydrochloride]
Selectivity MCR1/MCR4 (Table 6, MCR4 by Protocol E): 28
EC50 (Table 6): 541 nM

Compound: C[C@@H]1CN(C(=O)[C@@H]2CN(c3cccnn3)C[C@H]2c2ccc(F)cc2F)C[C@H](C)[C@@]1(O)c1ccccc1.Cl [Example 35, (3R,4R,5S)-1-{[(3S,4R)-4-(2,4-difluorophenyl)-1-pyridazin-3-ylpyrrolidin-3-yl]carbonyl}-3,5-dimethyl-4-phenylpiperidin-4-ol hydrochloride]
Selectivity MCR1/MCR4 (Table 6, MCR4 by Protocol E): 847
EC50 (Table 6): 1270 nM

Compound: C[C@@H]1CN(C(=O)[C@@H]2CN(c3ccccn3)C[C@H]2c2ccc(F)cc2F)C[C@H](C)[C@@]1(O)c1ccccc1.Cl [Example 31, (3R,4R,5S)-1-{[(3S,4R)-4-(2,4-difluorophenyl)-1-pyridin-2-ylpyrrolidin-3-yl]carbonyl}-3,5-dimethyl-4-phenylpiperidin-4-ol hydrochloride]
Selectivity MCR1/MCR4 (Table 6, MCR4 by Protocol E): 2969
EC50 (Table 6): 10700 nM

The next lines start with the values.

Selectivity MCR1/MCR4 (Table 6, MCR4 by Protocol E): 125
EC50 (Table 6): 1200 nM
Compound: C[C@@H]1CN(C(=O)[C@@H]2CN(C(C)(C)C)C[C@H]2c2ccc(F)cc2F)C[C@H](C)[C@@]1(O)c1ccccc1.Cl [Example 5, (3R,4R,5S)-1-{[(3S,4R)-1-tert-Butyl-4-(2,4-difluorophenyl)pyrrolidin-3-yl]carbonyl}-3,5-dimethyl-4-phenylpiperidin-4-ol hydrochloride]

Selectivity MCR1/MCR4 (Table 6, MCR4 by Protocol E): 9
EC50 (Table 6): 667 nM
Compound: C[C@@H]1CN(C(=O)[C@@H]2CNC[C@H]2c2ccc(F)cc2F)C[C@H](C)[C@@]1(O)c1ccc(F)cc1.Cl [Example 12, (3R,4R,5S)-1-{[(3S,4R)-4-(2,4-difluorophenyl)pyrrolidin-3-yl]carbonyl}-4-(4-fluorophenyl)-3,5-dimethylpiperidin-4-ol hydrochloride]

Selectivity MCR1/MCR4 (Table 5, MCR4 by Protocol C): 324
EC50 (Table 5): 8100 nM
Selectivity MCR1/MCR4 (Table 6, MCR4 by Protocol E): 125
Compound: C[C@@H]1CN(C(=O)[C@@H]2CN(C(C)(C)C)C[C@H]2c2ccc(F)cc2F)C[C@H](C)[C@@]1(O)c1ccccc1 [Example 1, (3R,4R,5S)-1-{[(3S,4R)-1-tert-Butyl-4-(24-difluorophenyl)pyrrolidin-3-yl]carbonyl}-3,5-dimethyl-4-phenylpiperidin-4-ol]

Selectivity MCR1/MCR4 (Table 6, MCR4 by Protocol E): 311
EC50 (Table 6): 8400 nM
Compound: C[C@@H]1CN(C(=O)[C@@H]2CN(C(C)(C)C)C[C@H]2c2ccc(F)cc2F)C[C@H](C)[C@@]1(O)c1ccc(Cl)cc1.Cl [Example 13, (3R,4R,5S)-1-{[(3S,4R)-1-tert-butyl-4-(2,4-difluorophenyl)pyrrolidin-3-yl]carbonyl}-4-(4-chlorophenyl)-3,5-dimethylpiperidin-4-ol hydrochloride]
